# Reference: BigSolDB 2.1
structure (smiles),measurement,setting,value
CS(=O)(=O)c1ccc(F)cc1,solubility (mole fraction),"in acetone, 290.53 K",0.226
same,solubility (mole fraction),"in acetone, 298.3 K",0.282
same,solubility (mole fraction),"in acetone, 304.2 K",0.331
same,solubility (mole fraction),"in chloroform, 288.4 K",0.229
same,solubility (mole fraction),"in chloroform, 293.25 K",0.262
same,solubility (mole fraction),"in chloroform, 299.93 K",0.312
same,solubility (mole fraction),"in chloroform, 305 K",0.352
same,solubility (mole fraction),"in ethanol, 291.07 K",0.0162
same,solubility (mole fraction),"in ethanol, 297.34 K",0.0302
same,solubility (mole fraction),"in ethanol, 303.07 K",0.0471
same,solubility (mole fraction),"in ethanol, 308.66 K",0.0744
same,solubility (mole fraction),"in ethyl acetate, 293.28 K",0.189
same,solubility (mole fraction),"in ethyl acetate, 299.67 K",0.23
same,solubility (mole fraction),"in ethyl acetate, 305.75 K",0.278
same,solubility (mole fraction),"in ethyl acetate, 313.05 K",0.35
same,solubility (mole fraction),"in toluene, 290.84 K",0.0422
same,solubility (mole fraction),"in toluene, 298.86 K",0.0744
same,solubility (mole fraction),"in toluene, 304.15 K",0.105
same,solubility (mole fraction),"in toluene, 306.87 K",0.125
